Literature values, collected in US10215758B2, “Platinum-labeled probes for mass cytometry” (priority 2015, dated 2019).

Conditions: human, in vivo; cited from earlier work

N.N.[Cl][Pt][Cl] [cisplatin, cis-diamminedichloroplatinum(II)]
binding to serum protein: most cisplatin binds to serum protein within hours
